{
  "source": "patent US20100280986A1",
  "about": "“SYSTEMS AND METHODS FOR TAILORING ACUTE AND CHRONIC VIRAL INFECTION […] INCREASE THE P[…] \"CURE\" FOR A GIVEN SUBJECT” (Roche Palo Alto, priority 2009, published 2010)",
  "test_system": "HCV",
  "assay": "HCV viral kinetic population model (nonlinear mixed effects) fitted to long-term viral load profiles of 2100 CHC patients",
  "type": "in vivo, human (patients)",
  "excerpt": "In an embodiment, a population model may account for the ribavirin effect, the natural turnover and proliferation of hepatocytes, and the viral eradication.\nIn this example, liver physiological/patho-physiology characteristics are incorporated into model 400, such as hepatocyte cell maturation (source s), death rate (death d), maximal liver size (Tmax). Model 400 can be parameterization in terms of a reproductive ratio (RR0) rather than cell infectivity (infection β). A “cure” boundary condition can be provided when a number of infected cells is predicted to be <=1.\nHCV viral kinetic model 400 is extended with a density dependent proliferation of hepatocytes [r].\nInfectious HCV virions (VI) infect target cells (uninfected hepatocytes) [T] creating productively infected cells (I) at a rate β·V1·T. Uninfected hepatocytes are produced at rate s and die at rate d. Infected hepatocytes die at rate δ. Infectious (VI) and non-infectious (VNI) virions are produced at rate p and cleared at rate c. The measured viral load (V) can be expressed in IU/mL, representing the sum of infectious and non-infectious virions V=VI+VN.\nContinuing the example, DoseRBV is the daily dose of ribavirin per kg body weight and ED50RRV is the estimated daily dose in mg/kg rendering 40% of the virions non-infectious. […]",
  "data": [
    {"smiles": "NC(=O)c1ncn([C@@H]2O[C@H](CO)[C@@H](O)[C@H]2O)n1", "note": "[ribavirin]", "values": [
      {"measurement": "ED50RBV (estimated daily dose rendering virions non-infectious)", "setting": "population estimate, daily dose per kg body weight", "value": 14.4, "unit": "mg˜kg^−1·day^−1"},
      {"measurement": "Fraction of the virions rendered non-infectious", "setting": "standard ribavirin treatment of 1000/1200 mg per day", "value": "40-60%"}
    ]}
  ]
}
